Data on 22 compounds can be found in US20240279205A1, “NOVEL BENZIMIDAZOLE DERIVATIVE” (Carna Biosciences, Inc., priority 2020, published 2024).

SMILES strings stand for the structures. Structures can show the parent of a compound that is named as a salt.

The test system of assay [1] is STING activation (IFN-β production in THP-1 cells). Nature of the assay: Human IFN-β production inhibition test by cGAMP stimulation in THP-1 cells. It is filed as cell-based. Further details: IFN-β bioinhibitory activity: scale not given here. The following applies: 2'3'-cGAMP transfection, 18 hours, IFN-β ELISA; for IC50: Homo sapiens, read-out: IFN-β bioinhibitory activity. The protocol:
Human IFN-β production inhibition test by cGAMP stimulation
The inhibitory activity of test compounds against STING activation was evaluated by measuring the amount of IFN-β produced when human monocytic cell line THP-1 cells were stimulated with the endogenous ligand cGAMP.
After seeding THP-1 cells (ATCC) in a 96-well plate, PMA (Santa Cruz Biotechnology) adjusted to a concentration of 100 nM after addition was added, and incubated at 37° C. in a 5% CO2 incubator. It was cultured overnight (RPMI1640 medium containing 10% FBS, 50 U/mL penicillin/50 μg/mL streptomycin). A test compound solution adjusted to a final concentration of 0.001 to 1 μM was added to each well of this plate and cultured for 1 hour in a CO2 incubator (DMSO final concentration 0.1%). 0.12 μg/well of 2′3′-cGAMP (Invivogen, #tlrl-nacga23) was introduced into the cells by transfection using Lipofectamine2000 (Invitrogen) and cultured in a CO incubator for an additional 18 hours. After collecting the culture supernatant from each well, the amount of human IFN-β produced in the culture supernatant was measured by ELISA using R&D human IFN-β Duoset (R&D Systems).
Assuming that the human IFN-β production amount of the test compound-free and cGAMP-added group is 100%, and the human IFN-β production amount of the test compound-free and cGAMP-free group is 0%, the IC50 value was determined by regression analysis of the inhibitory rate determined from the amount of human IFN-β production at each compound concentration and the concentration of the test compound (logarithm).
Background: An ELISA detects its analyte on a solid surface through an enzyme-linked reagent.

The target of another assay is T1, human STING (hSTING) (Homo sapiens, UniProt Q86WV6).
T1 construct: host or cells: HEK-Blue ISG cells (HEK293-derived SEAP reporter line)
Briefly: Inhibition test of intracellular human STING (hSTING) pathway using SEAP reporter cells (HEK-Blue ISG), stimulation with Compound 3. It is filed as cell-based. Also on record: hSTING inhibitory activity: scale not given here. As to conditions: Compound 3 10 nM stimulation, 21 hours. The essentials: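 IC50 derived by regressing inhibition rate against log compound concentration (0.1 to 10 μM final, added 1 h before agonist), with 0% and 100% set by wells without and with 10 nM Compound 3. SEAP colour reaction read after 21 h stimulation of HEK-Blue ISG reporter cells.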

T1 sequence (Q86WV6 whole entry H232R): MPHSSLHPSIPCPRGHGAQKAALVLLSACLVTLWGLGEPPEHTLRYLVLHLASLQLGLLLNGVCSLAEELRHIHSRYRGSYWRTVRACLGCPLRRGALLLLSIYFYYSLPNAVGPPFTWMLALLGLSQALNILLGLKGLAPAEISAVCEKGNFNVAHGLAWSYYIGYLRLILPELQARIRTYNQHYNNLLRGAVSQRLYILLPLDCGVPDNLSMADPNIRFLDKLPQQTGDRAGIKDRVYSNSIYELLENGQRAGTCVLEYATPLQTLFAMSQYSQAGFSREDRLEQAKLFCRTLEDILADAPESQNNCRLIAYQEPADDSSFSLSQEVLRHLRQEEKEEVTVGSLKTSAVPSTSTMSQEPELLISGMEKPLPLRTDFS

For the compound `Clc1ccc2[nH]cc(Nc3nc4cc(Br)ccc4[nH]3)c2n1` [Embodiment 95, 5-bromo-N-(5-chloro-1H-pyrrolo [3,2-b]pyridin-3-yl)-1H-benzo [d]imidazol-2-amine formate], the IFN-β bioinhibitory activity entry in assay [1] is recorded as “* * *”. Besides, the hSTING inhibitory activity entry at human STING (hSTING) is given as “* *”.
In the case of `C=C(C)c1ccc2[nH]c(Nc3c[nH]c4ccc(Cl)nc34)nc2c1` [Embodiment 100, N-(5-chloro-1H-pyrrolo[3,2-b]pyridin-3-yl)-5-(prop-1-en-2-yl)-1H-benzo[d]imidazole-2-amine], in assay [1], the IFN-β bioinhibitory activity entry was “* * *”. Moreover, the hSTING inhibitory activity result on human STING (hSTING) is recorded as “* * *”.
Consider `C=Cc1ccc2[nH]cc(Nc3nc4cc(Oc5ccccc5)ccc4[nH]3)c2n1` [Embodiment 101, 5-phenoxy-N-(5-vinyl-1H-pyrrolo [3,2-b]pyridin-3-yl)-1H-benzo [d]imidazol-2-amine], for which, in assay [1], the IFN-β bioinhibitory activity entry is listed as “* *”. Moreover, the hSTING inhibitory activity result on human STING (hSTING) is “* * *”.
Consider `CCc1ccc2[nH]cc(Nc3nc4cc(Oc5ccccc5)ccc4[nH]3)c2n1` [Embodiment 103, N-(5-ethyl-1H-pyrrolo[3,2-b]pyridin-3-yl)-5-phenoxy-1H-benzo [d]imidazol-2-amine], for which the IC50 in assay [1] lay in the range of 0.1 to 1 µM. The hSTING inhibitory activity result at human STING (hSTING) is “* *”.
As for `CC(C)c1ccc2[nH]c(Nc3c[nH]c4ccc(Cl)nc34)nc2c1` [Embodiment 104, N-(5-Chloro-1H-pyrrolo[3,2-b]pyridin-3-yl)-5-isopropyl-1H-benzo[d]imidazol-2-amine], the IFN-β bioinhibitory activity result in assay [1] was “* *”. The hSTING inhibitory activity result on human STING (hSTING) is listed as “* *”.
Regarding `Cn1c(Nc2c[nH]c3ncc(Cl)cc23)nc2ccc(Oc3ccccc3)cc21` [Embodiment 108, N-(5-Chloro-1H-pyrrolo[2,3-b]pyridin-3-yl)-1-methyl-6-phenoxy-1H-benzo[d]imidazol-2-amine], the IC50 in assay [1] is ≥ 1 µM. Moreover, the hSTING inhibitory activity result at human STING (hSTING) was “* *”.
As to `Cn1c(Nc2c[nH]c3ncc(Cl)cc23)nc2cc(C(F)(F)F)ccc21` [Embodiment 109, N-(5-Chloro-1H-pyrrolo[2,3-b]pyridin-3-yl)-1-methyl-5-(trifluoromethyl)-1H-benzo[d] imidazol-2-amine], the IC50 in assay [1] lay within 0.1 to 1 µM. Further, at human STING (hSTING), the hSTING inhibitory activity entry was “* *”.
Consider `C#Cc1ccc2[nH]cc(Nc3nc4cc(Oc5ccccc5)ccc4[nH]3)c2n1` [Embodiment 111, N-(5-ethynyl-1H-pyrrolo[3,2-b]pyridin-3-yl)-5-phenoxy-1H-benzo[d]imidazol-2-amine formate], for which the IFN-β bioinhibitory activity result in assay [1] is “* *”. In addition, the hSTING inhibitory activity result on human STING (hSTING) was “* * *”.
For `Clc1ccc2[nH]cc(Nc3nc4cc(C5CCOCC5)ccc4[nH]3)c2n1` [Embodiment 112, N-(5-chloro-1H-pyrrolo[3,2-b]pyridin-3-yl)-5-(tetrahydro-2H-pyran-4-yl)-1H-benzo[d]imidazole-2-amine], the IC50 in assay [1] lay in the range of 0.1 to 1 µM. Moreover, at human STING (hSTING), the hSTING inhibitory activity result was “* *”.
`CCO/C=C/c1ccc2[nH]c(Nc3c[nH]c4ccc(Cl)nc34)nc2c1` [Embodiment 114, (E)-N-(5-chloro-1H-pyrrolo[3,2-b]pyridin-3-yl)-5-(2-ethoxyvinyl)-1H-benzo[d]imidazol-2-amine]: the IC50 in assay [1] was ≥ 1 µM. Besides, the hSTING inhibitory activity result at human STING (hSTING) is listed as “* * *”.
The corresponding values for `CC(C)n1c(Nc2c[nH]c3ccc(Cl)nc23)nc2cc(Oc3ccccc3)ccc21` [Embodiment 116, N-(5-Chloro-1H-pyrrolo[3,2-b]pyridin-3-yl)-1-isopropyl-5-phenoxy-1H-benzo[d]imidazol-2-amine] are 0.1 to 1 µM and “* * *”.
Take `CC(C)n1c(Nc2c[nH]c3ccc(Cl)nc23)nc2ccc(Oc3ccccc3)cc21` [Embodiment 117, N-(5-Chloro-1H-pyrrolo[3,2-b]pyridin-3-yl)-1-isopropyl-6-phenoxy-1H-benzo[d]imidazol-2-amine]: the IC50 in assay [1] is 0.1 to 1 µM. On human STING (hSTING), the hSTING inhibitory activity result is listed as “* * *”.
On the same counts, the results for `Clc1ccc2[nH]cc(Nc3nc4cc(Oc5ccccc5)ccc4n3C3CC3)c2n1` [Embodiment 118, N-(5-Chloro-1H-pyrrolo[3,2-b]pyridin-3-yl)-1-cyclopropyl-5-phenoxy-1H-benzo[d]imidazol-2-amine] are 0.1 to 1 µM and “* * *”.
As to `Clc1ccc2[nH]cc(Nc3nc4ccc(Oc5ccccc5)cc4n3C3CC3)c2n1` [Embodiment 119, N-(5-Chloro-1H-pyrrolo[3,2-b]pyridin-3-yl)-1-cyclopropyl-6-phenoxy-1H-benzo[d]imidazol-2-amine], the IC50 in assay [1] fell in the range of 0.1 to 1 µM. Moreover, the hSTING inhibitory activity entry on human STING (hSTING) was “* * *”.
The corresponding values for `Clc1ccc2[nH]cc(Nc3nc4cc(OC5CCCCC5)ccc4[nH]3)c2n1` [Embodiment 120, N-(5-Chloro-1H-pyrrolo[3,2-b]pyridin-3-yl)-5-(cyclohexyloxy)-1H-benzo[d]imidazol-2-amine formate] are 0.1 to 1 µM and “* * *”.
On the same counts, the results for `Cc1ccc2[nH]c(Nc3c[nH]c4ccc(Cl)nc34)nc2c1` [Embodiment 123, N-(5-chloro-1H-pyrrolo[3,2-b]pyridin-3-yl)-5-methyl-1H-benzo[d] imidazol-2-amine] are 0.1 to 1 µM and “* * *”.
As to `Clc1ccc2[nH]cc(Nc3nc4cc(I)ccc4[nH]3)c2n1` [Embodiment 124, N-(5-Chloro-1H-pyrrolo[3,2-b]pyridin-3-yl)-5-iodo-1H-benzo[d] imidazol-2-amine], in assay [1], the IFN-β bioinhibitory activity result is reported as “* * *”. The hSTING inhibitory activity result on human STING (hSTING) is on record as “* *”.
Consider `Clc1ccc2[nH]cc(Nc3nc4cc(C#CC5CC5)ccc4[nH]3)c2n1` [Embodiment 125, N-(5-Chloro-1H-pyrrolo[3,2-b]pyridin-3-yl)-5-(cyclopropylethynyl)-1H-benzo[d]imidazol-2-amine], for which the IC50 in assay [1] was 0.1 to 1 µM. For the same compound, on human STING (hSTING), the hSTING inhibitory activity result is given as “* *”.
For the compound `Clc1ccc2[nH]cc(Nc3nc4c(N5CCCCC5)cccc4[nH]3)c2n1` [Embodiment 127, N-(5-Chloro-1H-pyrrolo[3,2-b]pyridin-3-yl)-4-(piperidin-1-yl)-1H-benzo[d]imidazol-2-amine], the IFN-β bioinhibitory activity result in assay [1] is reported as “* *”. Besides, on human STING (hSTING), the hSTING inhibitory activity entry is reported as “* *”.
Regarding `CC(C)=Cc1ccc2[nH]c(Nc3c[nH]c4ccc(Cl)nc34)nc2c1` [Embodiment 128, N-(5-chloro-1H-pyrrolo[3,2-b]pyridin-3-yl)-5-(2-methylprop-1-en-1-yl)-1H-benzo[d]imidazole-2-amine], the IFN-β bioinhibitory activity result in assay [1] was “* * *”. In addition, the hSTING inhibitory activity result on human STING (hSTING) is listed as “* *”.
On the same counts, the results for `Clc1ccc2[nH]cc(Nc3nc4cc(C5CC5)ccc4[nH]3)c2n1` [Embodiment 129, N-(5-Chloro-1H-pyrrolo[3,2-b]pyridin-3-yl)-5-cyclopropyl-1H-benzo[d]imidazol-2-amine] are “* *” and “* *”.
In the case of `N#Cc1ccc2[nH]cc(Nc3nc4cc(Oc5ccccc5)ccc4[nH]3)c2n1` [Embodiment 130, 3-[(5-phenoxy-1H-benzo[d]imidazol-2-yl)amino]-1H-pyrrolo[3,2-b] pyridine-5-carbonitrile], the IC50 in assay [1] is ≥ 1 µM. Besides, on human STING (hSTING), the hSTING inhibitory activity result is “* *”.
